Where two headings read alike, the source gives them in different places.
Columns and labels:
dextranase = molecular target: T1, dextranase (Arthrobacter sp., UniProt P39652); test: Effects of metallic ions and enzyme inhibitors on dextranase activity; type: biochemical, Arthrobacter sp. CB-8; settings: for inhibition of dextranase (in words): summary of Table 6; for activity at 1000 µM: read-out: Relative activity (%) of dextranase
T1 construct: the mature dextranase protein consisting of 591 amino acid residues; endogenous in cells; host or cells: Arthrobacter sp; CB-8 (FERM BP-995), enzyme purified from the culture
T1 sequence (P39652 50-640): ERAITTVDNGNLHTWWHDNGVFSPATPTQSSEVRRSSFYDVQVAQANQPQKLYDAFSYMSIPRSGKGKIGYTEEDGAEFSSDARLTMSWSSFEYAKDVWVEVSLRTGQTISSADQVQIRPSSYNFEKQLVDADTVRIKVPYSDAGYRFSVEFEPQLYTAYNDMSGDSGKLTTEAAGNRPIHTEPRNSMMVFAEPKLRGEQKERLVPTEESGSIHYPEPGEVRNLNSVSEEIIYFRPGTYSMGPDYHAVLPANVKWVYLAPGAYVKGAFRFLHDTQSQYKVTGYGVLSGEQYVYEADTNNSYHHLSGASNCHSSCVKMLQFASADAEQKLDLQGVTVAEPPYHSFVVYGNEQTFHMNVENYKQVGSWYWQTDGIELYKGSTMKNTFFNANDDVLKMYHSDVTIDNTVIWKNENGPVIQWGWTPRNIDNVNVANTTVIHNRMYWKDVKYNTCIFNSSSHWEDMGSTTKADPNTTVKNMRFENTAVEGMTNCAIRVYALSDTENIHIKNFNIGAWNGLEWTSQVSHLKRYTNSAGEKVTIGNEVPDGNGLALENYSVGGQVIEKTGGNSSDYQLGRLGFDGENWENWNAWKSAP
Protocol: 0.1 ml of the enzyme solution is added to 0.9 ml of 50 mM phosphate buffer, pH 6.5, containing 0.555% dextran (molecular weight: 10,000~20,000),and the mixture is incubated at 37° C. for 30 minutes. After the reaction is stopped, the amount of reducing sugar produced is measured by Somogyi-Nelson method. The enzymatic activity which increases a reducing power equivalent to 1 μ mole of glucose per 1 minute was defined as one unit.

α-1,3 glucanase I = test: Effects of metallic ions and enzyme inhibitors on α-1,3 glucanase I; type: biochemical, Bacillus circulans BC-8
Protocol: (§1) Both α-1,3 glucanase I and II are inhibited by Fe^2+, Pb^2+, and […].
(§2) 0.1 ml of α-1,3 glucanase solution was added to 0.2 ml of 1.3-α-D glucan suspension (6 mg/ml, 50 mM phosphate buffer, pH 7.0), and the mixture was incubated for 16 hours at 40° C. The reaction was terminated by adding ethanol (final concentration was 60%), and amount of the sugar which had become soluble in this condition was determined by the phenol sulfuric acid method.
(§3) Under the above-mentioned reaction conditions, the enzyme activity which produced an amount of sugar soluble in 60% ethanol and corresponding to 100 nmol of glucose was defined as one unit. In practice, α-1,3 glucanase solutions of various concentrations were used for developing the standard curve, and the enzyme activity was read out on it.

α-1,3 glucanase II = test: Effects of metallic ions and enzyme inhibitors on α-1,3 glucanase II; type: biochemical, Bacillus circulans BC-8
Protocol: as §1, §2, §3

[1] = metallic ion or inhibitor 0.1 mM, none = 100
[2] = metallic ion or inhibitor 1 mM, none = 100

| SMILES | inhibition of α-1,3 glucanase I enzymatic activity (α-1,3 glucanase I) | inhibition of α-1,3 glucanase II enzymatic activity (α-1,3 glucanase II) | Relative activity (%) of dextranase (dextranase; [2]) [%] | also measured |
| --- | --- | --- | --- | --- |
| O=[N+]([O-])[O-].[Ag+] [AgNO3] | significant inhibition | significant inhibition | – | Relative activity (%) of dextranase (dextranase; [1]): 0%; inhibition of dextranase (in words) (dextranase): significantly inhibited |
| [Ca+2].[Cl-].[Cl-] [CaCl2] | – | – | 113 | – |
| O=S(=O)([O-])[O-].[Cu+2] [CuSO4] | – | – | – | Relative activity (%) of dextranase (dextranase; [1]): 7%; inhibition of dextranase (in words) (dextranase): significantly inhibited |
| O=C(O)CN(CCN(CC(=O)O)CC(=O)O)CC(=O)O [EDTA] | – | – | – | activity at 1000 µM (dextranase): 122% |
| [Cl][Fe][Cl] [FeCl2] | inhibited | inhibited | 115 | – |
| [Cl][Fe]([Cl])[Cl] [FeCl3] | – | – | 104 | – |
| [Cl][Hg][Cl] [HgCl2] | significant inhibition | significant inhibition | – | Relative activity (%) of dextranase (dextranase; [1]): 0%; inhibition of dextranase (in words) (dextranase): significantly inhibited |
| [Cl-].[K+] [KCl] | – | – | – | Relative activity (%) of dextranase (dextranase; metallic ion or inhibitor 10 mM, none = 100): 113% |
| O=S(=O)([O-])[O-].[Mg+2] [MgSO4] | – | – | 113 | – |
| [Cl][Mn][Cl] [MnCl2] | – | – | 77 | – |
| [Cl-].[Na+] [NaCl] | – | – | – | Relative activity (%) of dextranase (dextranase): 100% |
| [Cl][Pb][Cl] [PbCl2] | inhibited | inhibited | 103 | – |
| [Cl-].[Cl-].[Zn+2] [ZnCl2] | – | – | 77 | – |
| c1cnc2c(c1)ccc1cccnc12 [o-Phenanthroline] | – | – | – | activity at 1000 µM (dextranase; [2]): 100% |
| O=C(O)c1cc[c]([Hg][Cl])cc1 [pCMB, p-chloromercuribenzoic acid] | significant inhibition | significant inhibition | 29 | inhibition of dextranase (in words) (dextranase): inhibited strongly |
